For 36 compounds, EC50 results are on record in patent US20050075375A1 (priority 2003, published 2005).

The test has as its system monocistronic NK5.1 HCV replicon in Huh7 cells. The experiment in a line: HCV replicon assay, monocistronic replicon cell line. Type of test: cell-based, hepatitis C virus. The note with it: Hepatitis C virus, read-out: Mono EC50 Median. The method in brief:
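EC50 derives from the HCV RNA/GAPDH RNA ratio by one-step TaqMan RT-PCR, relative to DMSO-only wells. Compounds (six half-log concentrations, 0.6% DMSO) were incubated 3 days at 37 °C with NK5.1 monocistronic replicon Huh7 cells plated a day earlier.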
In general terms: Replicon systems follow genome replication, usually without infectious particles.

Where [1] appears, read: Huh-7, 72 h, Table 1, monocistronic replicon in Huh7 cells, 3 days incubation, HCV RNA/GAPDH RNA by TaqMan RT-PCR.
The mark [2] stands for this setting: Huh-7, monocistronic NK5.1 HCV replicon in Huh7 cells, median value.

Structures are written as SMILES. Read-outs that look alike come from different tables or passages of the source.

`Oc1ccc(Cl)cc1-c1nc(-c2ccc(C(F)(F)F)cn2)no1` [Compound 218, 4-Chloro-2-[3-(5-trifluoromethyl-pyridin-2-yl)-[1,2,4]oxadiazol-5-yl]-phenol]: the EC50 under setting [1] is 18 µM and the EC50 under setting [2] stood at 18 µM.

Take `Oc1ccc(F)cc1-c1nc(-c2ccc(C(F)(F)F)cn2)no1` [Compound 219, 4-Fluoro-2-[3-(5-trifluoromethyl-pyridin-2-yl)-[1,2,4]oxadiazol-5-yl]-phenol]: the EC50 was more than 32 µM under setting [1] and more than 32 µM under setting [2]. As to `COc1cccc(-c2nc(-c3ccc(C(F)(F)F)cn3)no2)c1` [Compound 220, 2-[5-(3-Methoxy-phenyl)-[1,2,4]oxadiazol-3-yl]-5-trifluoromethyl-pyridine], the EC50 is, setting by setting: under setting [1], more than 32 µM; under setting [2], more than 32 µM. `Oc1ccc2ccccc2c1-c1nc(-c2ccc(C(F)(F)F)cn2)no1` [Compound 221, 1-[3-(5-Trifluoromethyl-pyridin-2-yl)-[1,2,4]oxadiazol-5-yl]-naphthalen-2-ol]: the half-maximal effective concentration (EC50) was 4.8 µM under setting [1] and 4.8 µM under setting [2].

For the compound `COc1ccc(-c2nc(-c3ccc(C(F)(F)F)cn3)no2)c(O)c1` [Compound 222, 5-Methoxy-2-[3-(5-trifluoromethyl-pyridin-2-yl)-[1,2,4]oxadiazol-5-yl]-phenol], the EC50 is more than 32 µM under setting [1] and more than 32 µM under setting [2]. Consider `Oc1ccccc1-c1nc(-c2ccc(C(F)(F)F)cn2)no1` [Compound 223], for which the concentration giving a half-maximal response (EC50) amounted to 19 µM under setting [1] and 19 µM under setting [2]. On to `COc1ccc(O)c(-c2nc(-c3ccc(C(F)(F)F)cn3)no2)c1` [Compound 224, 4-Methoxy-2-[3-(5-trifluoromethyl-pyridin-2-yl)-[1,2,4]oxadiazol-5-yl]-phenol], for which the EC50 was determined as 3.2 µM under setting [1] and 3.2 µM under setting [2]. For the compound `Cc1ccc(O)c(-c2nc(-c3ccc(C(F)(F)F)cn3)no2)c1` [Compound 225, 4-Methyl-2-[3-(5-trifluoromethyl-pyridin-2-yl)-[1,2,4]oxadiazol-5-yl]-phenol], the concentration giving a half-maximal response (EC50) by setting is: under setting [1], 7.5 µM; under setting [2], 7.5 µM.

As to `O=[N+]([O-])c1ccc(Cl)c(-c2nc(-c3ccc(C(F)(F)F)cn3)no2)c1` [Compound 226, 2-[5-(2-Chloro-5-nitro-phenyl)-[1,2,4]oxadiazol-3-yl]-5-trifluoromethyl-pyridine], the EC50 under setting [1] came to 4.3 µM and the EC50 under setting [2] amounted to 4.3 µM. As to `FC(F)(F)c1ccc(-c2noc(-c3cccc4ccccc34)n2)nc1` [Compound 227, 2-(5-Naphthalen-1-yl-[1,2,4]oxadiazol-3-yl)-5-trifluoromethyl-pyridine], the half-maximal effective concentration (EC50) is more than 32 µM under setting [1] and more than 32 µM under setting [2].

Regarding `Oc1ccc(Br)cc1-c1nc(-c2ncccc2-c2ccccc2)no1` [Compound 228, 4-Bromo-2-[3-(3-phenyl-pyridin-2-yl)-[1,2,4]oxadiazol-5-yl]-phenol], the concentration giving a half-maximal response (EC50) reads like this: under setting [1], 2.2 µM; under setting [2], 2.2 µM. As to `Oc1ccc2ccccc2c1-c1nc(-c2ncccc2-c2ccccc2)no1` [Compound 229, 1-[3-(3-Phenyl-pyridin-2-yl)-[1,2,4]oxadiazol-5-yl]-naphthalen-2-ol], the concentration for a half-maximal effect (EC50) under setting [1] is more than 10 µM and the EC50 under setting [2] was more than 10 µM. Regarding `COc1cccc(-c2nc(-c3ncccc3-c3ccccc3)no2)c1O` [Compound 230, 2-Methoxy-6-[3-(3-phenyl-pyridin-2-yl)-[1,2,4]oxadiazol-5-yl]-phenol], the EC50 was determined as 9.8 µM under setting [1] and 9.8 µM under setting [2]. In the case of `CN(C)c1ccc(-c2nc(-c3ncccc3-c3ccccc3)no2)c(O)c1` [Compound 231, 5-Dimethylamino-2-[3-(3-phenyl-pyridin-2-yl)-[1,2,4]oxadiazol-5-yl]-phenol], the EC50 runs as follows: under setting [1], 2.4 µM; under setting [2], 2.4 µM. As for `Cc1ccc(O)c(-c2nc(-c3ncccc3-c3ccccc3)no2)c1` [Compound 232, 4-Methyl-2-[3-(3-phenyl-pyridin-2-yl)-[1,2,4]oxadiazol-5-yl]-phenol], the EC50 was more than 32 µM under setting [1] and more than 32 µM under setting [2]. Consider `COc1cc(O)c(-c2nc(-c3ncccc3-c3ccccc3)no2)c(OC)c1` [Compound 233, 3,5-Dimethoxy-2-[3-(3-phenyl-pyridin-2-yl)-[1 ,2,4]oxadiazol-5-yl]-phenol], for which the EC50 reads like this: under setting [1], 2.1 µM; under setting [2], 2.1 µM. As for `CCOc1ccc(-c2nc(-c3ncccc3-c3ccccc3)no2)c(O)c1` [Compound 234, 5-Ethoxy-2-[3-(3-phenyl-pyridin-2-yl)-[1,2,4]oxadiazol-5-yl]-phenol], the EC50 under setting [1] is more than 19 µM and the EC50 under setting [2] was more than 19 µM.

For `COc1ccc(-c2nc(-c3ncccc3-c3ccccc3)no2)c(O)c1` [Compound 235, 5-Methoxy-2-[3-(3-phenyl-pyridin-2-yl)-[1,2,4]oxadiazol-5-yl]-phenol], the concentration for a half-maximal effect (EC50) by setting is: under setting [1], 2.3 µM; under setting [2], 2.3 µM.

Take `Oc1ccc(O)c(-c2nc(-c3ncccc3-c3ccccc3)no2)c1` [Compound 236, 2-[3-(3-Phenyl-pyridin-2-yl)-[1,2,4]oxadiazol-5-yl]-benzene-1,4-diol]: the EC50 by setting is: under setting [1], 2.2 µM; under setting [2], 2.2 µM. As to `COc1cccc(-c2nc(-c3ccc(NC(=O)OC(C)(C)C)cn3)no2)c1O` [Compound 237, {6-[5-(2-Hydroxy-3-methoxy-phenyl)-[1,2,4]oxadiazol-3-yl]-pyridin-3-yl}-carbamic acid tert-butyl ester], the concentration giving a half-maximal response (EC50) is more than 32 µM under setting [1] and more than 32 µM under setting [2]. Take `COc1ccc(-c2nc(-c3ccc(NC(=O)OC(C)(C)C)cn3)no2)c(O)c1` [Compound 238, {6-[5-(2-Hydroxy-4-methoxy-phenyl)-[1,2,4]oxadiazol-3-yl]-pyridin-3-yl}-carbamic acid tert-butyl ester]: the concentration for a half-maximal effect (EC50) under setting [1] came out at 1.9 µM and the 50% effective concentration (EC50) under setting [2] is 1.9 µM. Take `COc1ccc(O)c(-c2nc(-c3ccc(NC(=O)OC(C)(C)C)cn3)no2)c1` [Compound 239, {6-[5-(2-Hydroxy-5-methoxy-phenyl)-[1,2,4]oxadiazol-3-yl]-pyridin-3-yl}-carbamic acid tert-butyl ester]: the EC50 came to 2.1 µM under setting [1] and 2.1 µM under setting [2]. As to `COc1cc(O)c(-c2nc(-c3ncccc3C)no2)c(OC)c1` [Compound 240, 3,5-Dimethoxy-2-[3-(3-methyl-pyridin-2-yl)-[1,2,4]oxadiazol-5-yl]-phenol], the EC50 under setting [1] was found to be 0.7 µM and the concentration for a half-maximal effect (EC50) under setting [2] came to 0.7 µM. For the compound `COc1cccc(O)c1-c1nc(-c2ncccc2C)no1` [Compound 241, 3-Methoxy-2-[3-(3-methyl-pyridin-2-yl)-[1,2,4]oxadiazol-5-yl]-phenol], the 50% effective concentration (EC50) reads like this: under setting [1], more than 10 µM; under setting [2], more than 10 µM.

As for `COc1cc(Br)cc(-c2nc(-c3ncccc3C)no2)c1O` [Compound 242, 4-Bromo-2-methoxy-6-[3-(3-methyl-pyridin-2-yl)-[1,2,4]oxadiazol-5-yl]-phenol], the EC50 is 8.3 µM under setting [1] and 8.3 µM under setting [2].

As for `CCOc1ccc(-c2nc(-c3ncccc3C)no2)c(O)c1` [Compound 243, 5-Ethoxy-2-[3-(3-methyl-pyridin-2-yl)-[1,2,4]oxadiazol-5-yl]-phenol], the EC50 runs as follows: under setting [1], 2.2 µM; under setting [2], 2.2 µM.

As to `CC(C)(C)OC(=O)Nc1ccc(-c2noc(-c3cc(Br)ccc3O)n2)nc1` [Compound 244, {6-[5-(5-Bromo-2-hydroxy-phenyl)-[1,2,4]oxadiazol-3-yl]-pyridin-3-yl}-carbamic acid tert-butyl ester], the half-maximal effective concentration (EC50) runs as follows: under setting [1], 7.3 µM; under setting [2], 7.3 µM. As to `Cc1ccc(O)c(-c2nc(-c3ccc(NC(=O)OC(C)(C)C)cn3)no2)c1` [Compound 245, {6-[5-(2-Hydroxy-5-methyl-phenyl)-[1,2,4]oxadiazol-3-yl]-pyridin-3-yl}-carbamic acid tert-butyl ester], the concentration for a half-maximal effect (EC50) under setting [1] was more than 32 µM and the half-maximal effective concentration (EC50) under setting [2] was more than 32 µM. Take `COc1cccnc1-c1noc(-c2cccc(OC)c2O)n1` [Compound 246, 2-Methoxy-6-[3-(3-methoxy-pyridin-2-yl)-[1,2,4]oxadiazol-5-yl]-phenol]: the concentration for a half-maximal effect (EC50) is 19 µM under setting [1] and 19 µM under setting [2].

For `COc1ccc(-c2nc(-c3ncccc3OC)no2)c(O)c1` [Compound 247, 5-Methoxy-2-[3-(3-methoxy-pyridin-2-yl)-[1,2,4]oxadiazol-5-yl]-phenol], the EC50 is, setting by setting: under setting [1], 4.1 µM; under setting [2], 4.1 µM. As for `COc1ccc(O)c(-c2nc(-c3ncccc3OC)no2)c1` [Compound 248, 4-Methoxy-2-[3-(3-methoxy-pyridin-2-yl)-[1,2,4]oxadiazol-5-yl]-phenol], the 50% effective concentration (EC50) worked out at 13 µM under setting [1] and 13 µM under setting [2]. Take `COc1cccnc1-c1noc(-c2cc(Br)ccc2O)n1` [Compound 249, 4-Bromo-2-[3-(3-methoxy-pyridin-2-yl)-[1,2,4]oxadiazol-5-yl]-phenol]: the half-maximal effective concentration (EC50) was found to be 0.76 µM under setting [1] and 0.76 µM under setting [2]. As for `COc1cccnc1-c1noc(-c2cc(C)ccc2O)n1` [Compound 250, 2-[3-(3-Methoxy-pyridin-2-yl)-[1,2,4]oxadiazol-5-yl]-4-methyl-phenol], the 50% effective concentration (EC50) reads like this: under setting [1], 2 µM; under setting [2], 2 µM. Turning to `COc1cccc(-c2nc(-c3ccc(N)cn3)no2)c1O` [Compound 251, 2-[3-(5-Amino-pyridin-2-yl)-[1,2,4]oxadiazol-5-yl]-6-methoxy-phenol], the 50% effective concentration (EC50) under setting [2] is more than 32 µM.

Turning to `COc1ccc(O)c(-c2nc(-c3ccc(N)cn3)no2)c1` [Compound 252, 2-[3-(5-Amino-pyridin-2-yl)-[1,2,4]oxadiazol-5-yl]-4-methoxy-phenol], under setting [2], the concentration giving a half-maximal response (EC50) was found to be 9.2 µM. Still for that read-out and setting: then `COc1ccc(-c2nc(-c3ccc(N)cn3)no2)c(O)c1` [Compound 253], with more than 32 µM.

As usually defined, the EC50 is the concentration that produces a half-maximal response.
